# Legend:
# [1] = molecular target: T1, Serine/threonine-protein kinase ICK (Homo sapiens) (UniProt Q9UPZ9); details: Compound concentration 1.0 uM
# T1 sequence (whole entry): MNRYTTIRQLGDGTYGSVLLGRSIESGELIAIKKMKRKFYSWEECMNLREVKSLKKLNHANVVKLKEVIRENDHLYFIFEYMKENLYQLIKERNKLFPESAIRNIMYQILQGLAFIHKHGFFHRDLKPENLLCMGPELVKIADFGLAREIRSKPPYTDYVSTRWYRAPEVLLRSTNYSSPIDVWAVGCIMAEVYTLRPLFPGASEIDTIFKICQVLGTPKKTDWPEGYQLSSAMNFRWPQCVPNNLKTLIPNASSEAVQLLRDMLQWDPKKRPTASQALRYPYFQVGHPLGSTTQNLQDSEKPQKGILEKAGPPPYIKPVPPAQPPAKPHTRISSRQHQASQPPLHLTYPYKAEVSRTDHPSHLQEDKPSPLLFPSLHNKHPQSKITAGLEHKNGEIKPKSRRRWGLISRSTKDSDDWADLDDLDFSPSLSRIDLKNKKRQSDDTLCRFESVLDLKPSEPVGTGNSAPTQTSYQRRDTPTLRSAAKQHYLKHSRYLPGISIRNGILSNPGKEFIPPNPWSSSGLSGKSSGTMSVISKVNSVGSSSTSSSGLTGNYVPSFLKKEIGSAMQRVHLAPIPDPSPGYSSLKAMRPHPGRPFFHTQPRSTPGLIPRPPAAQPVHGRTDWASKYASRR
# [2] = molecular target: Mitogen-activated protein kinase kinase kinase 20 (Homo sapiens) (UniProt Q9NYL2); details: Compound concentration 1.0 uM
# [3] = molecular target: Serine/threonine-protein kinase SIK1 (Homo sapiens) (UniProt P57059); details: Compound concentration 1.0 uM
# [4] = molecular target: Platelet-derived growth factor receptor alpha (Homo sapiens) (UniProt P16234); details: Compound concentration 1.0 uM
# [5] = molecular target: T2, Ephrin type-B receptor 1 (Homo sapiens) (UniProt P54762); details: Compound concentration 1.0 uM
# T2 sequence (whole entry): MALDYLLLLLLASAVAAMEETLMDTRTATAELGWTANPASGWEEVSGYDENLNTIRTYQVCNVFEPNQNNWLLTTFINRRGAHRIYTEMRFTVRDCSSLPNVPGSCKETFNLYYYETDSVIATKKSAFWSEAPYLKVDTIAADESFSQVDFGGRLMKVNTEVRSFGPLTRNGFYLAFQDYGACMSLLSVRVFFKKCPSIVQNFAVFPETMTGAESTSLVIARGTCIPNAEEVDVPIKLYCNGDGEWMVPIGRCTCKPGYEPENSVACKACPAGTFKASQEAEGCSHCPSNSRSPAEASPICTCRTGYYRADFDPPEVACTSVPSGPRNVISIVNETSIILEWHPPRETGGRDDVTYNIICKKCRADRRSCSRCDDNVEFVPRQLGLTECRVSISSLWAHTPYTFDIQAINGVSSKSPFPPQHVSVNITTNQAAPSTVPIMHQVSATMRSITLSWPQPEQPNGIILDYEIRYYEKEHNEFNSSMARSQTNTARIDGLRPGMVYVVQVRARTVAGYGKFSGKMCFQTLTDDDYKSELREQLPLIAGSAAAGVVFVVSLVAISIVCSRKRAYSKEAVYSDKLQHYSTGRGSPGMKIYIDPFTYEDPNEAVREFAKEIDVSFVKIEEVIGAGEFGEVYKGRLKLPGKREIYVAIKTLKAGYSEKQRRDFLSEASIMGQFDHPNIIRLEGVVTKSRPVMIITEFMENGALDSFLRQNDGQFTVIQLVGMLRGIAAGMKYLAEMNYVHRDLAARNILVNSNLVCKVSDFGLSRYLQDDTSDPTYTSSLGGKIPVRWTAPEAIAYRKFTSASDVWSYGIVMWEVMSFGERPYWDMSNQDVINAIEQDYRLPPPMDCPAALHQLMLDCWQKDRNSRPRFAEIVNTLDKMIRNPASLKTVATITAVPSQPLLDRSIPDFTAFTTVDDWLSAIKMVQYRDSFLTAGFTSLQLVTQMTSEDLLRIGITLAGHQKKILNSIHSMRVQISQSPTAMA
# [6] = molecular target: Tyrosine-protein kinase Fer (Homo sapiens) (UniProt P16591); details: Compound concentration 1.0 uM
# [7] = molecular target: Serine/threonine-protein kinase Nek6 (Homo sapiens) (UniProt Q9HC98); details: Compound concentration 1.0 uM
# [8] = molecular target: Fibroblast growth factor receptor 4 (Homo sapiens) (UniProt P22455); details: Compound concentration 1.0 uM
# [9] = molecular target: Wee1-like protein kinase (Homo sapiens) (UniProt P30291); details: Compound concentration 1.0 uM
# [10] = molecular target: Homeodomain-interacting protein kinase 2 (Homo sapiens) (UniProt Q9H2X6); details: Compound concentration 1.0 uM
# [11] = molecular target: ALK tyrosine kinase receptor (Homo sapiens) (UniProt Q9UM73); details: Compound concentration 1.0 uM
# [12] = molecular target: Protein kinase C eta type (Homo sapiens) (UniProt P24723); details: Compound concentration 1.0 uM
# [13] = molecular target: T3, Beta-adrenergic receptor kinase 1 (Homo sapiens) (UniProt P25098); details: Compound concentration 1.0 uM
# T3 sequence (whole entry): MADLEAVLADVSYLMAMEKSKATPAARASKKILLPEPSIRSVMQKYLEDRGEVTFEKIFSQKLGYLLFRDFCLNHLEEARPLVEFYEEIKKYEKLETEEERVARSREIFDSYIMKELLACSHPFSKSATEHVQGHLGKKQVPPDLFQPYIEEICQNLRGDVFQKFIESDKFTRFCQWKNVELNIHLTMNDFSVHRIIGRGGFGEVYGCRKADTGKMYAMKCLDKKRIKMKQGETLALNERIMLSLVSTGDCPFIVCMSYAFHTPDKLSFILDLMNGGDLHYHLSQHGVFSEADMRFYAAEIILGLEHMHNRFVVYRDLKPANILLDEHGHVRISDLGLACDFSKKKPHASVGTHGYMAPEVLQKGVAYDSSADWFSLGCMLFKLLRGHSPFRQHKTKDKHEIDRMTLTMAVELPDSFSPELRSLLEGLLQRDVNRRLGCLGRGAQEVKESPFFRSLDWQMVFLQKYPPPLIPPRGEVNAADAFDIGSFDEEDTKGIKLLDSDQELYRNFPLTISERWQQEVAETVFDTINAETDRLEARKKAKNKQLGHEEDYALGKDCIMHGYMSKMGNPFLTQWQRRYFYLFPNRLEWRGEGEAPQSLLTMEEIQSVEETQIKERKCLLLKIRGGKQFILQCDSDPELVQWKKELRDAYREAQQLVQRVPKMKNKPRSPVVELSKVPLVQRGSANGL
# [14] = molecular target: Sigma intracellular receptor 2 (Homo sapiens, UniProt Q5BJF2); assay: GPCRScan assay: inhibition of Sigma 2; parameters: radioligand conc. used [nm] 5.0, parental cells HEKT
# Sequence of Wee1-like protein kinase (Homo sapiens) (P30291 whole entry, looked up): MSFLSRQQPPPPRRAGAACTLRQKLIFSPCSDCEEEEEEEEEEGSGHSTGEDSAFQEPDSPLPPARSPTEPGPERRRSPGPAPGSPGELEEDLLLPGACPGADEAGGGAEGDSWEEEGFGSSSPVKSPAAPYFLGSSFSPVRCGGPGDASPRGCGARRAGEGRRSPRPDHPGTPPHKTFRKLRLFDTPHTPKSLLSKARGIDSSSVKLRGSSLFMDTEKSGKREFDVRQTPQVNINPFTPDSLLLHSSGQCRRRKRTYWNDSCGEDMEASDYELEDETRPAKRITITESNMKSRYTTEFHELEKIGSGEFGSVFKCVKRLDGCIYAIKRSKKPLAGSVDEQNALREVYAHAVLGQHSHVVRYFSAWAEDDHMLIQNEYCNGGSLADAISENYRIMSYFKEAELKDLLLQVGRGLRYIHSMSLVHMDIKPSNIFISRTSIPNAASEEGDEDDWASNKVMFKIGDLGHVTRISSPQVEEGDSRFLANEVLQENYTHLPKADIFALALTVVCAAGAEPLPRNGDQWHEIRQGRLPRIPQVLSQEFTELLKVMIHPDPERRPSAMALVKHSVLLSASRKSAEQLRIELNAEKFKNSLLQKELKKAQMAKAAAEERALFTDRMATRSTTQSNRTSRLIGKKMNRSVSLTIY
# Sequence of Homeodomain-interacting protein kinase 2 (Homo sapiens) (Q9H2X6 whole entry, looked up): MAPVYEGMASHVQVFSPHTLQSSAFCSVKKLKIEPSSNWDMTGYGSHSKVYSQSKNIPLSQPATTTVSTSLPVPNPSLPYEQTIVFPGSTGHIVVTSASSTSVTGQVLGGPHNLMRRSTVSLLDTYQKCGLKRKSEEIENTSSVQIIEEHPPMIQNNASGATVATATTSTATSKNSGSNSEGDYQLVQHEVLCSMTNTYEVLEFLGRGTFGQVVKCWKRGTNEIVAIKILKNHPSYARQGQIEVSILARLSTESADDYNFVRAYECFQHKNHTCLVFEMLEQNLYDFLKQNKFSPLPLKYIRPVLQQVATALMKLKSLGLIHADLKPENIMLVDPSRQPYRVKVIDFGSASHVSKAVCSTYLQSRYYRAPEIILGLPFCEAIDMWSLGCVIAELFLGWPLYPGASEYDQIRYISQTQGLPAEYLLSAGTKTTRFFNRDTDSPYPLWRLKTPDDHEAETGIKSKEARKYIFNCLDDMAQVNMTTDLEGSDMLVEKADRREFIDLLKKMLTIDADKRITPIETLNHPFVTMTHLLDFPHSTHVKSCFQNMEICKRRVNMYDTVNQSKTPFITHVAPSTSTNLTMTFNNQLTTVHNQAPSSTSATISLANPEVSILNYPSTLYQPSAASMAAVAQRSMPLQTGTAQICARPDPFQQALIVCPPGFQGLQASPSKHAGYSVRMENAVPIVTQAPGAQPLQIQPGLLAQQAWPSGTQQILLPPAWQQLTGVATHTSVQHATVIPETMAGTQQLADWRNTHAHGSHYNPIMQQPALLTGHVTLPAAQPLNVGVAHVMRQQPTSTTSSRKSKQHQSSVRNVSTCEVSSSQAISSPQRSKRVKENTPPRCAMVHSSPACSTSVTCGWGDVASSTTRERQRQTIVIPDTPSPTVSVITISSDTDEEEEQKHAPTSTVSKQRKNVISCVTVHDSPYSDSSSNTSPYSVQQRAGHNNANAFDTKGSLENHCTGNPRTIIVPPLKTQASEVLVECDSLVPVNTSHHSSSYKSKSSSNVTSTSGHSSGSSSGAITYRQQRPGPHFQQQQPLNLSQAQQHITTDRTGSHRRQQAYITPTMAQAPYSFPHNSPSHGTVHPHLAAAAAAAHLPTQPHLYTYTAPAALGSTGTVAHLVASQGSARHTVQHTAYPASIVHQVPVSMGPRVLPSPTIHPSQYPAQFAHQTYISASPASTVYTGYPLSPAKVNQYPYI
# Sequence of Tyrosine-protein kinase Fer (Homo sapiens) (P16591 whole entry, looked up): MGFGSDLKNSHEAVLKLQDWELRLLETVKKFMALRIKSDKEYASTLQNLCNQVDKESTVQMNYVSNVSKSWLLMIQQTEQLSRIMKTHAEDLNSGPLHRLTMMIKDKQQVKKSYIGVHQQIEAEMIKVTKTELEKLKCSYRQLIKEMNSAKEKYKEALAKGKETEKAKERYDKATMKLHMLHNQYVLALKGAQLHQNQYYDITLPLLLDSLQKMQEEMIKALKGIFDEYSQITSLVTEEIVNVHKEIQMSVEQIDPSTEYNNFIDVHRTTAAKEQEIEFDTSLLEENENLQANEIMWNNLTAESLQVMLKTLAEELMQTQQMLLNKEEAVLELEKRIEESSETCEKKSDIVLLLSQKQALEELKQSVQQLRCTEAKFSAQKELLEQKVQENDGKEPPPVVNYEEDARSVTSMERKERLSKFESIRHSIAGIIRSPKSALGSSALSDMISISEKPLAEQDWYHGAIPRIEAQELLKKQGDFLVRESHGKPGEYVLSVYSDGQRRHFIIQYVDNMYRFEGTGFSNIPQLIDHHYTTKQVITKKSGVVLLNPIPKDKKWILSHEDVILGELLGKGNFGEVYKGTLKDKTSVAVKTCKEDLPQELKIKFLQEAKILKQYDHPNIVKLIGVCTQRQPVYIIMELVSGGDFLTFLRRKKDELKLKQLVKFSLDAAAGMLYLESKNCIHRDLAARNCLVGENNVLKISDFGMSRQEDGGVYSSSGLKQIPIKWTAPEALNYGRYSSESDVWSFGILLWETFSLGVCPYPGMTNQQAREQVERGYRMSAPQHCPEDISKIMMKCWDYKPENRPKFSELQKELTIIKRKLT
# Sequence of Protein kinase C eta type (Homo sapiens) (P24723 whole entry): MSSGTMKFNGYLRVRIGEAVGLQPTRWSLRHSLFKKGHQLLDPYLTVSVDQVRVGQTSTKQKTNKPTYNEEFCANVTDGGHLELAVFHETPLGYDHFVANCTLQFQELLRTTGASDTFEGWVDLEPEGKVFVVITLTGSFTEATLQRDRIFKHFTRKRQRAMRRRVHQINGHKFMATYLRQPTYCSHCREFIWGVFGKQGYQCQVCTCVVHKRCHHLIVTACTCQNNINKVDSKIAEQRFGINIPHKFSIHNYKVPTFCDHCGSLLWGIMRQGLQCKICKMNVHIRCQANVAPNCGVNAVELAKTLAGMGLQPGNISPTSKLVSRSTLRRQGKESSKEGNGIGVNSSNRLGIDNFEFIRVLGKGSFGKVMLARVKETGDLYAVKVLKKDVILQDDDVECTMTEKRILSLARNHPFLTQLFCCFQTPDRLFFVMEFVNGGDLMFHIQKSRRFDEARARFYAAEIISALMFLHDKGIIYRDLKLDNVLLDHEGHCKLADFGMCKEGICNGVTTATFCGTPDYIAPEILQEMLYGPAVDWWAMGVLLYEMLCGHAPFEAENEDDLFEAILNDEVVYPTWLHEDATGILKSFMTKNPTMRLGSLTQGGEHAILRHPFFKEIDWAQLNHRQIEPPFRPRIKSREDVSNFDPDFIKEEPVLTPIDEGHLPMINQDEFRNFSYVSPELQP
# Sequence of ALK tyrosine kinase receptor (Homo sapiens) (Q9UM73 19-1620 limits assumed): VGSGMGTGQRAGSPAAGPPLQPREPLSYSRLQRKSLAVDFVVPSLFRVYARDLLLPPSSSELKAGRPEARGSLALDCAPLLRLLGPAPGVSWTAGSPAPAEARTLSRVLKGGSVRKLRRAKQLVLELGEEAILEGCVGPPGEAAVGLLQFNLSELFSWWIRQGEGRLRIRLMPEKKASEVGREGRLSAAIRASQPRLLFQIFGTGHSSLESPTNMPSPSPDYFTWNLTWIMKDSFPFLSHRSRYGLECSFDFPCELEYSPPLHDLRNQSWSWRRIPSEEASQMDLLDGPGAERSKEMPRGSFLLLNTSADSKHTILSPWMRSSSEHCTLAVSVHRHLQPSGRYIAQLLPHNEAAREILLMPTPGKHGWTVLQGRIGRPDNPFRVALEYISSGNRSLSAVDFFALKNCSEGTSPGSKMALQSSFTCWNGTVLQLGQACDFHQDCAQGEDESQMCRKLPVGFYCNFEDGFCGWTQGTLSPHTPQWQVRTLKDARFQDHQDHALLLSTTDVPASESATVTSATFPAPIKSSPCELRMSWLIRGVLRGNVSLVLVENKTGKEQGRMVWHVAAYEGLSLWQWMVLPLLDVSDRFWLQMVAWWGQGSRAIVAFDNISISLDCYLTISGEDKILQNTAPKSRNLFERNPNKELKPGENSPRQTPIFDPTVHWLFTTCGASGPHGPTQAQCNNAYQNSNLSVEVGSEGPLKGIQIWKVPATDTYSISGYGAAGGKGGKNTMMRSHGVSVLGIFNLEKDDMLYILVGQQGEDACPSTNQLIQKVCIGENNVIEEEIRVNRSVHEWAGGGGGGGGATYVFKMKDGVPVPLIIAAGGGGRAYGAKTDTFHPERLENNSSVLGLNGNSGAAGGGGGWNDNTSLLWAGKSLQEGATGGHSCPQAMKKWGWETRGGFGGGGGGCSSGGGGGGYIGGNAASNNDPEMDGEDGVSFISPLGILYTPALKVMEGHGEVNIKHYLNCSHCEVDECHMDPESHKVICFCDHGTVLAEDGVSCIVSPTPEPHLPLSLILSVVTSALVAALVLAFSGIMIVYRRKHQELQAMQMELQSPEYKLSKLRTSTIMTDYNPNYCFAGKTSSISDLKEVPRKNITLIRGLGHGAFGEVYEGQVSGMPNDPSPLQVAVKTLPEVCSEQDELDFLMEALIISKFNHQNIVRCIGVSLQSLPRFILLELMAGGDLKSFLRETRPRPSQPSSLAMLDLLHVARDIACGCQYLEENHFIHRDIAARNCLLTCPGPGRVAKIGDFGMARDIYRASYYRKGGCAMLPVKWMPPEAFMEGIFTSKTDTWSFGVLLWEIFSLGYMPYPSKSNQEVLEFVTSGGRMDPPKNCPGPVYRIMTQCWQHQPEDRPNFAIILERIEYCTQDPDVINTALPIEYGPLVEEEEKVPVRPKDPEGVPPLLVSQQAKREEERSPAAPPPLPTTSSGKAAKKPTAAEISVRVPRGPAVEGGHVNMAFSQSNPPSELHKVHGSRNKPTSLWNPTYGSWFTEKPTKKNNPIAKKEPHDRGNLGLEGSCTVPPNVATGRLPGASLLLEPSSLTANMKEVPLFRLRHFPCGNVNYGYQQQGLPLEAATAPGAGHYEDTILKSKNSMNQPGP
Compound,% residual kinase activity [1],% residual kinase activity [2],% residual kinase activity [3],% residual kinase activity [4],% residual kinase activity [5],% residual kinase activity [6],% residual kinase activity [7],% residual kinase activity [8],% residual kinase activity [9],% residual kinase activity [10],% residual kinase activity [11],% residual kinase activity [12],% residual kinase activity [13],Ki [14]
CN1CCN(c2cnc3c(C4CCN(C(=O)c5ccc(OC(F)(F)F)cc5N)CC4)ncnc3c2)CC1 [BAY-885],93%,100%,99%,105%,105%,38%,125%,96%,108%,107%,121%,115%,85%,–
Cc1nc(C2CCN(C(=O)c3ccc(OC(F)(F)F)cc3N)CC2)c2ncc(N3CCN(C)CC3)cc2n1 [BAY-693],–,–,–,–,–,–,–,–,–,–,–,–,–,4.9 µM
